Measured values as given in US20250170104A1, “INHIBITORS OF PSEUDOMONAS AERUGINOSA VIRULENCE FACTOR Lasß” (priority 2022, published 2025).
Converted amounts (≈) assume the structure as drawn. Where two headings read alike, the source gives them in different places.

Key:
[1] = target: LasB (Pseudomonas aeruginosa (strain ATCC 15692 / DSM 22644 / CIP 104116 / JCM 14847 / LMG 12228 / 1C / PRS 101 / PAO1), UniProt P14756); experiment: In vitro LasB activity assay (fluorogenic substrate); format: biochemical; settings: LasB 0.3 nM, substrate 150 μM, mean ± SD
Chain of LasB (P14756 198-498): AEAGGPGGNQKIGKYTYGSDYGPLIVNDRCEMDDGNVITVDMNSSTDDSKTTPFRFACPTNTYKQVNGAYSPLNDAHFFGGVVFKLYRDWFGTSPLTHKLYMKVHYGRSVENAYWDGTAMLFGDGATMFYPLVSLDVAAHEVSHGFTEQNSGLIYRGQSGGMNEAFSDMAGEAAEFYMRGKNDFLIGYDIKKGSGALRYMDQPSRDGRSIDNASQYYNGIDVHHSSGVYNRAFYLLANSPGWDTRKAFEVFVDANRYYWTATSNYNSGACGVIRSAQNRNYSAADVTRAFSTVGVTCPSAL
Procedure: The LasB activity assay was performed as described previously (Nishino N, Powers J C. Pseudomonas aeruginosa elastase. Development of a new substrate, inhibitors, and an affinity ligand. J Biol Chem. 1980 Apr. 25; 255(8):3482-6) using the fluorogenic substrate 2-Aminobenzoyl-L-Alanyl-Glycyl-L-Leucyl-L-Alanyl-para-Nitro-Benzyl-Amide, purchased from Peptides International (Louisville, KY, USA) and vivitide, LLC (Gardner, MA, USA).
Fluorescence intensity was measured for 60 min at 37° C. in black 384-well microtiter plates (Greiner BioOne, Kremsmünster, Austria) using a CLARIOstar microplate reader (BMG Labtech, Ortenberg, Germany) with an excitation wavelength of […] and an emission wavelength of 415±20 nm. The assay was performed in a final volume of 50 μL of assay buffer (50 mM Tris, pH 7.2, 2.5 mM CaCl2), 0.075% Pluronic F-127, 5% DMSO) containing LasB at a final concentration of […] 0.3 nM and the substrate at 150 μM. Before substrate addition, compounds were preincubated with the enzyme at 37° C. for 15 min. Experiments were performed in duplicates and repeated for at least two times. Blank controls without enzyme were performed. After blank subtraction, the slope of samples containing inhibitors (v) was divided by the slope of a simultaneously started uninhibited enzymatic reaction (v0). IC50 values were determined with nonlinear regression using GraphPad Prism 5 (Graph Pad Software, San Diego, CA, USA) and are given as mean values ±standard deviation (SD). The slope factor was constrained to 1.

[2] = Kinetic turbidimetric solubility assay; format: physicochemical; settings: PBS
Procedure: The desired compounds were sequentially diluted in DMSO in a 96-well plate. 1.5 μL of each well were transferred into another 96-well plate and mixed with 148.5 μL of PBS. Plates were shaken for 5 min at 600 rpm at room temperature, and the absorbance at 620 nm was measured. Absorbance values were normalized by blank subtraction and plotted using GraphPad Prism 8.4.2 (GraphPad Software, San Diego, CA, USA). Solubility (S) was determined based on the First X value of AUC function using a threshold of 0.005.

[3] = in vitro; format: in vitro ADME; settings: mouse, s9
Procedure: For the evaluation of combined phase I and phase II metabolic stability, the compound (1 μM) was incubated with 1 mg/mL pooled liver S9 fraction (Xenotech), 2 mM NADPH, 1 mM UDPGA, 10 mM MgCl2, 5 mM GSH and 0.1 mM PAPS at 37° C. for 0, 5, 15, 30 and 60 min. The metabolic stability of Testosterone (1 μM), verapamil (1 μM) and ketoconazol (1 μM) were determined in parallel to confirm the enzymatic activity of the S9 fraction. The incubation was stopped by precipitation of S9 enzymes with 2 volumes of cold acetonitrile containing internal standard (150 nM Diphenhydramine). Samples were stored on ice for 10 min and precipitated protein was removed by centrifugation (15 min, 4° C., 4,000 rpm). The remaining test compound at different time points was analyzed by LC-MS/MS (TSQ Quantum Access MAX, Thermo Fisher, Dreieich, Germany) and used to determine half-life (t½).

[4] = target: purified LasB (Pseudomonas aeruginosa (strain ATCC 15692 / DSM 22644 / CIP 104116 / JCM 14847 / LMG 12228 / 1C / PRS 101 / PAO1), UniProt P14756); experiment: Ex vivo lung homogenate assay with purified LasB; format: biochemical
Chain of purified LasB (P14756 198-498): as above
Procedure: The lung homogenate was prepared from pig lung, which was stored at −80° C. After thawing the lung tissue was cut into pieces of approximately 1.5 cm diameter and 0.5 to 1 cm thickness. Subsequently the bits were flash frozen in liquid nitrogen and lyophilized for 48 h.
1.2 g dried tissue was then ball milled using an IKA Tube Drive and the respective 50 mL ball milling tubes. 20 steel balls were used with target rpm of 6000, reversing the spinning direction every 30 seconds for a total of 10 min. After 10 min the tube was detached and inverted to loosen the powder. The ball milling was repeated with the same setup twice again.
To the powdery tissue 50 mL of a 10 mM Tris buffer including 2 mM CaCl2 with a pH of 8.0 was added and the IKA Tube Drive used again with the same settings as described before for 10 min to disperse the tissue powder in the aqueous buffer. The yielded lung homogenate was pipetted into 15 mL falcons and stored at −80° C. until further use.
To perform the LasB activity/inhibition assay a compound dilution was prepared in DMSO yielding a 100 fold concentration of the final concentration in the assay. LasB was diluted from a higher stock solution to a 6 μM stock in the same buffer as used for the lung homogenate. The assay was performed in Eppis. With a stepper pipette 10 μL of the prepared LasB solution was added to the Eppis to yield a final protein concentration of 300 nM. Then 188 μL of thawed lung homogenate was added with a stepper pipette. Finally, 2 μL of the 100 fold compound dilutions were added and mixed by pipetting up and down. The Eppis were incubated at 37° C. with a shaking speed of 1000 rpm for 4 h.
After 4 h, the Eppis were centrifuged at a speed of 14,000 rpm, 4° C. for 10 min to separate the soluble cleaved Elastin fragments from the non-cleaved insoluble part. 100 μL of the obtained supernatant was transferred to new Eppis, and the same volume of concentrated hydrochloric acid added. […]
Peak areas and response ratios were calculated using Xcalibur Quan browser with Amprolium set as internal standard. […]

[5] = target: MMP1 (Homo sapiens (Human), UniProt P03956); experiment: Selectivity assay: inhibition of MMPs; format: biochemical
Chain of MMP1 (P03956 100-469): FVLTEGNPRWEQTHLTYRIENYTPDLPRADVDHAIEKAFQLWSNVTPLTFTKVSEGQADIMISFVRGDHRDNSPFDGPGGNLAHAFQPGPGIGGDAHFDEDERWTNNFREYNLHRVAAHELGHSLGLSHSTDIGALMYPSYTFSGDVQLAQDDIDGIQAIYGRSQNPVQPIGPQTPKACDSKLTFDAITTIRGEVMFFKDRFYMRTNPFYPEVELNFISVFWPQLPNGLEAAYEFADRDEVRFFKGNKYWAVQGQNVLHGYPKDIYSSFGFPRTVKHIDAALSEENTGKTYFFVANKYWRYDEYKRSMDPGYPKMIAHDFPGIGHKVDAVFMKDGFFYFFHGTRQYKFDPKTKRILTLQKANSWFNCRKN
Procedure: (§1) MMPs-1, -2, -3, -7, -8 and -14 along with the SensoLyte 520 Generic MMP Activity Kit*Fluorimetric* were purchased from AnaSpec (Fremont, CA, USA). The assay was performed as described previously (Schönauer E, Kany A M, Haupenthal J, Hüsecken K, Hoppe I J, Voos K, et al. Discovery of a Potent Inhibitor Class with High Selectivity toward Clostridial Collagenases. J Am Chem Soc. 2017 Sep. 13; 139(36):12696-703) using batimastat as a positive control according to the guidelines of the manufacturer.

[6] = target: MMP2 (Homo sapiens (Human), UniProt P08253); experiment: Selectivity assay: inhibition of MMPs; format: biochemical
Chain of MMP2 (P08253 110-660): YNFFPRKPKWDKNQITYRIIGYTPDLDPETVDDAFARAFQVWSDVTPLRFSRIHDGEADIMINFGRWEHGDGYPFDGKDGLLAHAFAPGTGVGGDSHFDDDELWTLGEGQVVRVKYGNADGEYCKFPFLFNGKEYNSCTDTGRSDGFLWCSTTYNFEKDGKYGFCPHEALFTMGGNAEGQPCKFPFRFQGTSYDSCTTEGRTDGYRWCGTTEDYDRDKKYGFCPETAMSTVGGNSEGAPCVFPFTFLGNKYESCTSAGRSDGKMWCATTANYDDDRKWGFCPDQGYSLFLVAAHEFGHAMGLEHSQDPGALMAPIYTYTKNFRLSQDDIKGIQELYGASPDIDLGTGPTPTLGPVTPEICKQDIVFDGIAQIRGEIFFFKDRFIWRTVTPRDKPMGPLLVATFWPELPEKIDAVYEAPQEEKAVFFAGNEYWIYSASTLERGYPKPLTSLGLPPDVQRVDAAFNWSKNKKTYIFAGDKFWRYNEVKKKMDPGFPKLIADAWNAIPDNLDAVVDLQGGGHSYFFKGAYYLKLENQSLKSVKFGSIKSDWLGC
Procedure: as §1

[7] = target: MMP3 (Homo sapiens (Human), UniProt P08254); experiment: Selectivity assay: inhibition of MMPs; format: biochemical
Chain of MMP3 (P08254 100-477): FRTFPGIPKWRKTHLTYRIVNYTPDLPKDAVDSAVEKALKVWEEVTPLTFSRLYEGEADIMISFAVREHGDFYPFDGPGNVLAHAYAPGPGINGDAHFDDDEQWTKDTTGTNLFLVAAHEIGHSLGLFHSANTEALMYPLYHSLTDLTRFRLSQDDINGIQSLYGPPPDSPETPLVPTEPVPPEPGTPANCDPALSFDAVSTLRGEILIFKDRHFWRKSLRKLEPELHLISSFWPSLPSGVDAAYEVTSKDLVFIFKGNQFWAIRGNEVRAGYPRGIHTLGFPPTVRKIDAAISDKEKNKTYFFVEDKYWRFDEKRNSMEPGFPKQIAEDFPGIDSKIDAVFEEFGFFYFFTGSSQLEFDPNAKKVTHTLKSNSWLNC
Procedure: as §1

[8] = target: HDAC3 (Homo sapiens (Human), UniProt O15379); experiment: HDAC inhibition; format: biochemical; settings: read-out: Selectivity IC50 HDAC3
Chain of HDAC3 (O15379 whole entry, looked up): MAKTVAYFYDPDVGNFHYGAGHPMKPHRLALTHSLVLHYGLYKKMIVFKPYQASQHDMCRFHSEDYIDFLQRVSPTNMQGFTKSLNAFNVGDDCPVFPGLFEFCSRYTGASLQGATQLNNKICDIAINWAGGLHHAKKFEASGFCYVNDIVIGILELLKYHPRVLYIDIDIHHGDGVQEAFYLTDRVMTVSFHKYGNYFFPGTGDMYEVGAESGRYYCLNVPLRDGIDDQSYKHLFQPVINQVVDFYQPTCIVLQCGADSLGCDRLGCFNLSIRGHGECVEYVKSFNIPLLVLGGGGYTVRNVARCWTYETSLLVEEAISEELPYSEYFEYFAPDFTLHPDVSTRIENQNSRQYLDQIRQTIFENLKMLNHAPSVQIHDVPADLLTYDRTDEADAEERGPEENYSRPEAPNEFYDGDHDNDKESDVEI
Chain of HDAC3 (Q9Y618 whole entry partner, looked up): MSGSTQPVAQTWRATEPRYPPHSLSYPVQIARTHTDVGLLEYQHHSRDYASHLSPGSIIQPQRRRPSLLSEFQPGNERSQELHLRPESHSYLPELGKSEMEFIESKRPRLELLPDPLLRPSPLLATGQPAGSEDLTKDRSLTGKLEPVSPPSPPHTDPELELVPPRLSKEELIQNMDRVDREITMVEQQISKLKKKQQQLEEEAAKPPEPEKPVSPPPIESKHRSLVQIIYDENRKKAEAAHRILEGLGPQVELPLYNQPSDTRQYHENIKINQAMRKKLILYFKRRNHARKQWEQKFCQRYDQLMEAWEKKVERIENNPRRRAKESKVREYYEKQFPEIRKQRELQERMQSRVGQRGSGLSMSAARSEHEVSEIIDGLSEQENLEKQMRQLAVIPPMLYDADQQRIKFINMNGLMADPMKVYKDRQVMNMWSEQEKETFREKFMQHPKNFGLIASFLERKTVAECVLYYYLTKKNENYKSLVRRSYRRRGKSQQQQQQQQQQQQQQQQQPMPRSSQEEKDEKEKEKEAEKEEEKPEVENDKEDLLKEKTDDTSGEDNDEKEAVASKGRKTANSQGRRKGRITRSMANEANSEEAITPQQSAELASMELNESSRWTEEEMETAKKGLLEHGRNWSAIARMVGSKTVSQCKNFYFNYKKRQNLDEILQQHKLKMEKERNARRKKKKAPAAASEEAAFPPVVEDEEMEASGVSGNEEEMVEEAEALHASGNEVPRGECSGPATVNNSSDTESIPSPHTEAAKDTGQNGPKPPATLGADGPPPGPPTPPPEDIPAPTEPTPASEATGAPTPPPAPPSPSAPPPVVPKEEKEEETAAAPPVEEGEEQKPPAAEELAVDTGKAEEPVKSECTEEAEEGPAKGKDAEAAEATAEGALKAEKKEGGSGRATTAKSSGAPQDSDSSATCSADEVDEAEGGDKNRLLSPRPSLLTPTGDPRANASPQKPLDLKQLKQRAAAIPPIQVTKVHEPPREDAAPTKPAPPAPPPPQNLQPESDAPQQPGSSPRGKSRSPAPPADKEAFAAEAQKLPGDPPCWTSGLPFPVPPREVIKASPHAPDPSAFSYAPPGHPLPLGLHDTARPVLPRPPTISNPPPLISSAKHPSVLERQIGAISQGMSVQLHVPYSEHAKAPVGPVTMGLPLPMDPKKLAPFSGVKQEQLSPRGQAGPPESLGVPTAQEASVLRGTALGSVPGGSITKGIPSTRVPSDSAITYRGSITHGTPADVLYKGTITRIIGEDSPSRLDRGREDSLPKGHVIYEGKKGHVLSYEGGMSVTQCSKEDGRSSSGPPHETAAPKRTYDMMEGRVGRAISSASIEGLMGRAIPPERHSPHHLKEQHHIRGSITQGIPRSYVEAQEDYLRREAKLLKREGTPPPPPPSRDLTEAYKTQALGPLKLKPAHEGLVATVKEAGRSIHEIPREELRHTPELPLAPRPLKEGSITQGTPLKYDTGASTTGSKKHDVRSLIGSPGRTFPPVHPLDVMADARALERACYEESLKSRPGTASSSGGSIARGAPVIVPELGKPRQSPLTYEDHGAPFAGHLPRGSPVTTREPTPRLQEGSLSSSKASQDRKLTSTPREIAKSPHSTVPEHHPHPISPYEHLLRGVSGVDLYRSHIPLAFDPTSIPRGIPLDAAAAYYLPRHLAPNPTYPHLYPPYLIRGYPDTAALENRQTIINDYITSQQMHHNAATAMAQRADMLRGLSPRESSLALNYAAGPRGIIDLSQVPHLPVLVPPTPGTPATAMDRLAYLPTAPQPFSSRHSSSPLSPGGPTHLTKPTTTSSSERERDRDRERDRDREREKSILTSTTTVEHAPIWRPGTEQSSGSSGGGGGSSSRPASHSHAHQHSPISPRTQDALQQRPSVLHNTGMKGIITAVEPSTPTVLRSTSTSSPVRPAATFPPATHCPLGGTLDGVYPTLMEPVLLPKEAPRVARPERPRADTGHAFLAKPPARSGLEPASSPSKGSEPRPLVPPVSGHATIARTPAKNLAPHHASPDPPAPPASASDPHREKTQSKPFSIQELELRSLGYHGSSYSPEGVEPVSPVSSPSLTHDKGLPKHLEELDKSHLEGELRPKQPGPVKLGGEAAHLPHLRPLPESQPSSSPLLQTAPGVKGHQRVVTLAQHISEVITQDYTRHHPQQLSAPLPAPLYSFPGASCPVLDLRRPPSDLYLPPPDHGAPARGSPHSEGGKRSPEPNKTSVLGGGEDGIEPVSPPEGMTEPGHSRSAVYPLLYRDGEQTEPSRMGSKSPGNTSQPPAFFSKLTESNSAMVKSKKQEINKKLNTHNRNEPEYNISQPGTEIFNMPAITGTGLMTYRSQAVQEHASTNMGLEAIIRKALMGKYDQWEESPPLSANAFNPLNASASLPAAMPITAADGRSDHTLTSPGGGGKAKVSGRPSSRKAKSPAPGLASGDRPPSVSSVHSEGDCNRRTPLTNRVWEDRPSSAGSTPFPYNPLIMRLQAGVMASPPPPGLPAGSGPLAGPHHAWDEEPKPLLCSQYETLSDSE
Procedure: (§2) HDAC3 and HDAC8 Inhibitor Screening Assay kits were purchased from Sigma-Aldrich. The assay was performed according to the guidelines of the manufacturer using trichostatin as a positive control. Fluorescence signals were measured in a CLARIOstar plate reader (BMG Labtech).

[9] = target: HDAC8 (Homo sapiens (Human), UniProt Q9BY41); experiment: HDAC inhibition; format: biochemical; settings: read-out: Selectivity IC50 HDAC8
Procedure: as §2

[10] = target: ADAM-17 (TACE) (Homo sapiens (Human), UniProt P78536); experiment: ADAM-17 (TACE) inhibitor screening assay; format: biochemical; settings: read-out: Selectivity IC50 TACE
Procedure: The ADAM-17 (TACE) Inhibitor Screening Assay Kit was purchased from Sigma-Aldrich. The assay was performed according to the guidelines of the manufacturer using ilomastat as a positive control. Fluorescence signals were measured in a CLARIOstar plate reader (BMG Labtech).

[11] = Cytotoxicity assay; format: cell-based; settings: human
Procedure: HepG2, HEK293 or A549 cells (2×10^5 cells per well) were seeded in 24-well, flat-bottomed plates. Culturing of cells, incubations, and OD measurements were performed as described previously (Int. J. Cancer 2007, 121, 206-210). Twenty-four hours after seeding the cells, the incubation was started by the addition of test compound in a final DMSO concentration of 1%. The living cell mass was determined after 48 h. At least two independent measurements were performed for each compound.

[12] = system: P. aeruginosa PA-14; experiment: MIC determination assay / antibacterial activity; format: cell-based; settings: Pseudomonas aeruginosa, PA14
Procedure: Assays regarding the determination of the minimum inhibitory concentration (MIC) were performed as described previously (Elgaher W A M, Fruth M, Groh M, Haupenthal J, Hartmann R W. Expanding the scaffold for bacterial RNA polymerase inhibitors: design, synthesis and structure-activity relationships of ureido-heterocyclic-carboxylic acids. RSC Adv. 2013 Dec. 3; 4(5):2177-94). The experiments were based on the P. aeruginosa strain PA14. For the case that no MIC value could be determined due to activity reasons, percentage (%) inhibition at 100 μM (or lower, depending on the solubility of the compounds) was calculated. The OD600 was measured 0 and 16 h after inhibitor addition in a CLARIOstar Platereader (BMG Labtech, Ortenberg, Germany).

[13] = aqueous buffer, kinetic from dmso stock

Compound	IC50 [1] [µM]	solubility at 5 min [2, 13] [µM]	half-life at 1 μM [3] [min]	IC50 [4] [µM]	IC50 ([4]; pig lung homogenate, 300 nM LasB, 4 h, desmosine LC-MSMS, read-out: IC50 ex vivo lung homogenate) [µM]	solubility at 5 min [2] [µM]	IC50 [5] [µM]	IC50 [6] [µM]	IC50 [7] [µM]	IC50 [8] [µM]	IC50 [9] [µM]	IC50 [10] [µM]	IC50 at 48 h ([11]; A549 cells) [µM]	IC50 at 48 h ([11]; HEK293 cells) [µM]	IC50 at 48 h ([11]; HepG2 cells) [µM]	IC50 [12] [µM]
CC(C)CC(C(=O)NO)C(=O)Nc1ccc(Cn2cc(CNS(=O)(=O)c3ccc(Cl)cc3)nn2)cc1 (centres unmarked) [Compound 161, N-[4-[[4-[[(4-Chlorophenyl)sulfonylamino]methyl]triazol-1-yl]methyl]phenyl]-2-(hydroxycarbamoyl)-4-methyl-pentanamide]	0.0017 ± 0.0001	> 200	33.9 ± 1	0.186	–	–	–	–	–	–	–	–	–	–	–	–
CC(C)C(C(=O)NO)C(=O)Nc1ccc(Cn2cc(CNS(=O)(=O)c3ccc(I)cc3)nn2)cc1 (centres unmarked) [Compound 182, 2-(Hydroxycarbamoyl)-N-[4-[[4-[[(4-iodophenyl)sulfonylamino]methyl]triazol-1-yl]methyl]phenyl]-3-methyl-butanamide]	0.0019 ± 0.0001	–	–	–	0.127	–	–	–	–	–	–	–	–	–	–	–
CC(C)CC(C(=O)NO)C(=O)Nc1ccc(Cn2cc(CNS(=O)(=O)c3ccc(I)cc3)nn2)cc1 (centres unmarked) [Hit L1, 2-(Hydroxycarbamoyl)-N-[4-[[4-[[(4-iodophenyl)sulfonylamino]methyl]triazol-1-yl]methyl]phenyl]-4-methyl-pentanamide]	0.0024 ± 0.0001	106 ± 19 (≈ 66.4 µg/mL)	30.1 ± 1.5	–	–	142 (≈ 89 µg/mL)	> 100	> 100	> 100	> 100	> 100	> 100	> 100	> 100	> 100	> 100
